Key:
Assay in all cases: relative viability (nuclei count vs DMSO), 5 days (fraction); higher = more cells survive
[1] = test system: EMC-BAC-2
Summary of the method: (§1)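 A single step with final 0.05% Triton X-100, 1% formaldehyde and 1 ug/ml Hoechst fixed the cells and stained nuclei 5 days after treatment. Lung cancer cell lines in 1536-well plates had been treated by pin tool the day after seeding with one drug alone or a fixed anchor-drug dose plus five library-drug doses (not always all listed) in √10 steps, and nuclei were counted on 4× images. Relative viability is the ratio of nuclei in treated wells to nuclei in vehicle wells, taken as the median of duplicate plates.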

[2] = test system: EPLC-272H
Summary of the method: as §1

[3] = test system: H3255
Summary of the method: as §1

[4] = test system: HCC-44
Summary of the method: as §1

[5] = test system: HCC-827
Summary of the method: as §1

[6] = test system: LCLC-103H
Summary of the method: as §1

[7] = test system: LCLC-97TM1
Summary of the method: as §1

[8] = test system: NCI-H1355
Summary of the method: as §1

[9] = test system: NCI-H1395
Summary of the method: as §1

[10] = test system: NCI-H1563
Summary of the method: as §1

[11] = test system: NCI-H1651
Summary of the method: as §1

[12] = test system: NCI-H1793
Summary of the method: as §1

[13] = test system: NCI-H1944
Summary of the method: as §1

[14] = test system: NCI-H2023
Summary of the method: as §1

[15] = test system: NCI-H2085
Summary of the method: as §1

[16] = test system: NCI-H2087
Summary of the method: as §1

[17] = test system: NCI-H2405
Summary of the method: as §1

[18] = test system: NCI-H322M
Summary of the method: as §1

[19] = test system: NCI-H520
Summary of the method: as §1

[20] = test system: NCI-H650
Summary of the method: as §1

[21] = test system: SK-MES-1
Summary of the method: as §1

[22] = test system: UMC-11
Summary of the method: as §1

O=C(O)c1ccc(-c2c[nH]c3ncc(-c4ccccc4)cc23)cc1C1CCCC1 + C[C@]1(O)C[C@@H](c2nc(-c3ccc4ccc(-c5ccccc5)nc4c3)c3c(N)nccn32)C1 [Linsitinib] (partner 1 µM)
relative viability ([1]; first compound 0.04 µM): 0.823 | relative viability ([1]; first compound 0.1265 µM): 0.866 | relative viability ([1]; first compound 0.4 µM): 0.819 | relative viability ([1]; first compound 1.265 µM): 0.79 | relative viability ([2]; first compound 0.04 µM): 1.16 | relative viability ([2]; first compound 0.1265 µM): 1.19 | relative viability ([2]; first compound 0.4 µM): 1.42 | relative viability ([2]; first compound 1.265 µM): 0.857 | relative viability ([3]; first compound 0.04 µM): 1 | relative viability ([3]; first compound 0.1265 µM): 0.994 | relative viability ([3]; first compound 0.4 µM): 0.935 | relative viability ([3]; first compound 1.265 µM): 0.909 | relative viability ([4]; first compound 0.04 µM): 0.664 | relative viability ([4]; first compound 0.1265 µM): 0.636 | relative viability ([4]; first compound 0.4 µM): 0.515 | relative viability ([4]; first compound 1.265 µM): 0.57 | relative viability ([5]; first compound 0.04 µM): 0.966 | relative viability ([5]; first compound 0.1265 µM): 0.976 | relative viability ([5]; first compound 0.4 µM): 0.884 | relative viability ([5]; first compound 1.265 µM): 0.702 | relative viability ([6]; first compound 0.04 µM): 1.04 | relative viability ([6]; first compound 0.1265 µM): 1.04 | relative viability ([6]; first compound 0.4 µM): 1.17 | relative viability ([6]; first compound 1.265 µM): 1.08 | relative viability ([7]; first compound 0.04 µM): 0.204 | relative viability ([7]; first compound 0.1265 µM): 0.218 | relative viability ([7]; first compound 0.4 µM): 0.175 | relative viability ([7]; first compound 1.265 µM): 0.166 | relative viability ([8]; first compound 0.04 µM): 0.848 | relative viability ([8]; first compound 0.1265 µM): 0.79 | relative viability ([8]; first compound 0.4 µM): 0.887 | relative viability ([8]; first compound 1.265 µM): 0.633 | relative viability ([9]; first compound 0.04 µM): 1.11 | relative viability ([9]; first compound 0.1265 µM): 1.06 | relative viability ([9]; first compound 0.4 µM): 1.08 | relative viability ([9]; first compound 1.265 µM): 0.796 | relative viability ([10]; first compound 0.04 µM): 1.22 | relative viability ([10]; first compound 0.1265 µM): 1.17 | relative viability ([10]; first compound 0.4 µM): 1.19 | relative viability ([10]; first compound 1.265 µM): 1.18 | relative viability ([11]; first compound 0.04 µM): 0.997 | relative viability ([11]; first compound 0.1265 µM): 0.968 | relative viability ([11]; first compound 0.4 µM): 0.912 | relative viability ([11]; first compound 1.265 µM): 0.781 | relative viability ([12]; first compound 0.04 µM): 0.909 | relative viability ([12]; first compound 0.1265 µM): 0.986 | relative viability ([12]; first compound 0.4 µM): 1.09 | relative viability ([12]; first compound 1.265 µM): 0.889 | relative viability ([13]; first compound 0.04 µM): 1.18 | relative viability ([13]; first compound 0.1265 µM): 1.39 | relative viability ([13]; first compound 0.4 µM): 1.04 | relative viability ([13]; first compound 1.265 µM): 1.02 | relative viability ([14]; first compound 0.04 µM): 0.699 | relative viability ([14]; first compound 0.1265 µM): 0.665 | relative viability ([14]; first compound 0.4 µM): 0.734 | relative viability ([14]; first compound 1.265 µM): 0.676 | relative viability ([15]; first compound 0.04 µM): 0.938 | relative viability ([15]; first compound 0.1265 µM): 1.01 | relative viability ([15]; first compound 0.4 µM): 0.8 | relative viability ([15]; first compound 1.265 µM): 0.644 | relative viability ([16]; first compound 0.04 µM): 0.959 | relative viability ([16]; first compound 0.1265 µM): 1.03 | relative viability ([16]; first compound 0.4 µM): 0.97 | relative viability ([16]; first compound 1.265 µM): 0.859 | relative viability ([17]; first compound 0.04 µM): 0.916 | relative viability ([17]; first compound 0.1265 µM): 0.932 | relative viability ([17]; first compound 0.4 µM): 0.908 | relative viability ([17]; first compound 1.265 µM): 0.603 | relative viability ([18]; first compound 0.04 µM): 0.913 | relative viability ([18]; first compound 0.1265 µM): 0.911 | relative viability ([18]; first compound 0.4 µM): 0.92 | relative viability ([18]; first compound 1.265 µM): 0.791 | relative viability ([19]; first compound 0.04 µM): 0.833 | relative viability ([19]; first compound 0.1265 µM): 1.13 | relative viability ([19]; first compound 0.4 µM): 0.904 | relative viability ([19]; first compound 1.265 µM): 0.712 | relative viability ([20]; first compound 0.04 µM): 0.844 | relative viability ([20]; first compound 0.1265 µM): 1.04 | relative viability ([20]; first compound 0.4 µM): 0.861 | relative viability ([20]; first compound 1.265 µM): 0.679 | relative viability ([21]; first compound 0.04 µM): 1.18 | relative viability ([21]; first compound 0.1265 µM): 1.09 | relative viability ([21]; first compound 0.4 µM): 0.997 | relative viability ([21]; first compound 1.265 µM): 0.749 | relative viability ([22]; first compound 0.04 µM): 0.98 | relative viability ([22]; first compound 0.1265 µM): 1.04 | relative viability ([22]; first compound 0.4 µM): 1.07 | relative viability ([22]; first compound 1.265 µM): 0.971

Oc1nc(-c2ccc(C(F)(F)F)cc2)nc2c1CSCC2 [XAV939] + C[C@]1(O)C[C@@H](c2nc(-c3ccc4ccc(-c5ccccc5)nc4c3)c3c(N)nccn32)C1 [Linsitinib] (partner 1 µM)
relative viability ([1]; first compound 0.08 µM): 0.868 | relative viability ([1]; first compound 0.253 µM): 0.705 | relative viability ([1]; first compound 0.8 µM): 0.711 | relative viability ([1]; first compound 2.53 µM): 0.511 | relative viability ([2]; first compound 0.08 µM): 1.3 | relative viability ([2]; first compound 0.253 µM): 1.08 | relative viability ([2]; first compound 0.8 µM): 1.18 | relative viability ([2]; first compound 2.53 µM): 1.09 | relative viability ([3]; first compound 0.08 µM): 0.981 | relative viability ([3]; first compound 0.253 µM): 0.843 | relative viability ([3]; first compound 0.8 µM): 1.05 | relative viability ([3]; first compound 2.53 µM): 0.784 | relative viability ([4]; first compound 0.08 µM): 0.789 | relative viability ([4]; first compound 0.253 µM): 0.673 | relative viability ([4]; first compound 0.8 µM): 0.659 | relative viability ([4]; first compound 2.53 µM): 0.651 | relative viability ([5]; first compound 0.08 µM): 0.995 | relative viability ([5]; first compound 0.253 µM): 0.91 | relative viability ([5]; first compound 0.8 µM): 0.952 | relative viability ([5]; first compound 2.53 µM): 0.942 | relative viability ([6]; first compound 0.08 µM): 1.05 | relative viability ([6]; first compound 0.253 µM): 0.943 | relative viability ([6]; first compound 0.8 µM): 1.19 | relative viability ([6]; first compound 2.53 µM): 1.02 | relative viability ([7]; first compound 0.08 µM): 0.192 | relative viability ([7]; first compound 0.253 µM): 0.19 | relative viability ([7]; first compound 0.8 µM): 0.206 | relative viability ([7]; first compound 2.53 µM): 0.167 | relative viability ([8]; first compound 0.08 µM): 0.867 | relative viability ([8]; first compound 0.253 µM): 0.783 | relative viability ([8]; first compound 0.8 µM): 0.82 | relative viability ([8]; first compound 2.53 µM): 0.666 | relative viability ([9]; first compound 0.08 µM): 1.09 | relative viability ([9]; first compound 0.253 µM): 1.04 | relative viability ([9]; first compound 0.8 µM): 1.11 | relative viability ([9]; first compound 2.53 µM): 0.974 | relative viability ([10]; first compound 0.08 µM): 1.2 | relative viability ([10]; first compound 0.253 µM): 1.01 | relative viability ([10]; first compound 0.8 µM): 1.07 | relative viability ([10]; first compound 2.53 µM): 0.871 | relative viability ([11]; first compound 0.08 µM): 1.01 | relative viability ([11]; first compound 0.253 µM): 0.799 | relative viability ([11]; first compound 0.8 µM): 0.915 | relative viability ([11]; first compound 2.53 µM): 0.875 | relative viability ([12]; first compound 0.08 µM): 0.964 | relative viability ([12]; first compound 0.253 µM): 0.709 | relative viability ([12]; first compound 0.8 µM): 0.774 | relative viability ([12]; first compound 2.53 µM): 0.719 | relative viability ([13]; first compound 0.08 µM): 1.22 | relative viability ([13]; first compound 0.253 µM): 1.12 | relative viability ([13]; first compound 0.8 µM): 1.24 | relative viability ([13]; first compound 2.53 µM): 1.26 | relative viability ([14]; first compound 0.08 µM): 0.699 | relative viability ([14]; first compound 0.253 µM): 0.626 | relative viability ([14]; first compound 0.8 µM): 0.625 | relative viability ([14]; first compound 2.53 µM): 0.447 | relative viability ([15]; first compound 0.08 µM): 0.811 | relative viability ([15]; first compound 0.253 µM): 0.771 | relative viability ([15]; first compound 0.8 µM): 0.91 | relative viability ([15]; first compound 2.53 µM): 0.888 | relative viability ([16]; first compound 0.08 µM): 1.14 | relative viability ([16]; first compound 0.253 µM): 0.936 | relative viability ([16]; first compound 0.8 µM): 0.939 | relative viability ([16]; first compound 2.53 µM): 0.672 | relative viability ([17]; first compound 0.08 µM): 1.01 | relative viability ([17]; first compound 0.253 µM): 0.863 | relative viability ([17]; first compound 0.8 µM): 0.96 | relative viability ([17]; first compound 2.53 µM): 0.801 | relative viability ([18]; first compound 0.08 µM): 0.966 | relative viability ([18]; first compound 0.253 µM): 0.872 | relative viability ([18]; first compound 0.8 µM): 0.909 | relative viability ([18]; first compound 2.53 µM): 0.618 | relative viability ([19]; first compound 0.08 µM): 0.983 | relative viability ([19]; first compound 0.253 µM): 0.974 | relative viability ([19]; first compound 0.8 µM): 0.833 | relative viability ([19]; first compound 2.53 µM): 0.775 | relative viability ([20]; first compound 0.08 µM): 1.13 | relative viability ([20]; first compound 0.253 µM): 1.07 | relative viability ([20]; first compound 0.8 µM): 0.911 | relative viability ([20]; first compound 2.53 µM): 0.857 | relative viability ([21]; first compound 0.08 µM): 1.1 | relative viability ([21]; first compound 0.253 µM): 0.896 | relative viability ([21]; first compound 0.8 µM): 1.03 | relative viability ([21]; first compound 2.53 µM): 0.965 | relative viability ([22]; first compound 0.08 µM): 1.25 | relative viability ([22]; first compound 0.8 µM): 0.952 | relative viability ([22]; first compound 2.53 µM): 0.854
